According to PMC12219900, “Mechanistic insights into Bcs1-mediated mitochondrial membrane translocation of the folded Rieske protein” (The EMBO Journal, 2025):

T1: Bcs1-ATPγS2-Rip1-FeS (Saccharomyces cerevisiae, UniProt P32839)
T1 construct: Bcs1 heptamer (His6-FLAG-3C, from yeast) preloaded with E. coli-expressed Rip1-FeS (aa 83-215; TwinStrep tag, 3C-treated; plasmid named Rip1 delta81); with Cytochrome b-c1 complex subunit Rieske, mitochondrial
T1 sequence (P32839 1-456): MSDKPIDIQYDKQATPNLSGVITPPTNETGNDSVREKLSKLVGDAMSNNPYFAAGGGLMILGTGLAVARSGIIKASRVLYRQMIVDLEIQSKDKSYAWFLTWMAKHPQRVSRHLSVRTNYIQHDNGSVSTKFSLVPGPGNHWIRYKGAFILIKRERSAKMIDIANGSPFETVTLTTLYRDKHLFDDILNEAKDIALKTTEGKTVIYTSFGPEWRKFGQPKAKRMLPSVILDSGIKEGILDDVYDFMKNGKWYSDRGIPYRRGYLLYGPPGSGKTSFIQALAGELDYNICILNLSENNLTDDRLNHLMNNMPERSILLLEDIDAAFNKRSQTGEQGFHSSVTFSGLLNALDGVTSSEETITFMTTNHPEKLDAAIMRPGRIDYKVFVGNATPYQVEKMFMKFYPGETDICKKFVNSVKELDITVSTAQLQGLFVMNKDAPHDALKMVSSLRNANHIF
T1 sequence (P08067 83-215 partner): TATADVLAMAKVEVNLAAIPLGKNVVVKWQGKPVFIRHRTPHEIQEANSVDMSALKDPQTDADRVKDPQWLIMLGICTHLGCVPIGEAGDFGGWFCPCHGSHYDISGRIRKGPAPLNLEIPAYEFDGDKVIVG

T2: yBcs1 (Bcs1 heptamer) (Saccharomyces cerevisiae, UniProt P32839)
T2 construct: full length 1-456, N-terminal 6xHis-FLAG-3C tag (cleavage not described), expressed in S. cerevisiae W303 bcs1delta, digitonin-solubilised, SEC in GDN, homoheptamer about 700 kDa on BN-PAGE
T2 sequence (P32839 1-456): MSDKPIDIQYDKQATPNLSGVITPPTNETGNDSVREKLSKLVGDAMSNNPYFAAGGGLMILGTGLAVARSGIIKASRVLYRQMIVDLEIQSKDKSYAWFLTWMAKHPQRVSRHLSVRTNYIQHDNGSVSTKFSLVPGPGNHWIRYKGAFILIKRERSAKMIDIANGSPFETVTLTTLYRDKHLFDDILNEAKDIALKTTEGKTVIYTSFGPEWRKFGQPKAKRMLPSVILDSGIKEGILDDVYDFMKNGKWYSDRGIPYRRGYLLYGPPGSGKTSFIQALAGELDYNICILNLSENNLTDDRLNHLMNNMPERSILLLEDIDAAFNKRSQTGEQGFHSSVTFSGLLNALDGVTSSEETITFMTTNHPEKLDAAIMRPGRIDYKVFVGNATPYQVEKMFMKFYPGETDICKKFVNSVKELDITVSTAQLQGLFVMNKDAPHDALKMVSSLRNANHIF


Legend:
[1] = molecular target: T1, Bcs1-ATPγS2-Rip1-FeS; experiment: cryo-EM structure; type: binding; details: Rip1-FeS added before 2 mM ATPγS, 2.5 mM MgCl2, pH 7.5, 25 °C; map only (EMD-51562)
[2] = molecular target: T2, yBcs1 (Bcs1 heptamer); experiment: cryo-EM structure; BN-PAGE shift; type: binding; details: 2 mM ATPγS, 2.5 mM MgCl2, pH 7.5, 25 °C; all seven AAA sites; two states ATPγS1 (9GSN) and ATPγS2 (9GU9)
[3] = molecular target: the molecule itself; experiment: cryo-EM structure; Bcs1 first incubated with Rip1-FeS in BN-buffer with 2.5 mM MgCl2 for 10 min at 25 °C, then 2 mM ATPγS for 10 min; ATPγS2 state

Row | Molecule | cryo-EM structure [1] | cryo-EM structure; BN-PAGE shift [2] | stoichiometry N [3]
1 | Nc1ncnc2c1ncn2[C@@H]1O[C@H](COP(=O)(O)OP(=O)(O)OP(O)(O)=S)[C@@H](O)[C@H]1O [ATPγS] | with all seven ATP-binding pockets exhibiting ATPγS density | ATPγS density was observed in each of the seven protomers as well | 
2 | Bcs1 (yeast Bcs1 heptamer) (enzyme, S. cerevisiae, UniProt P32839 1-456, looked up, Bcs1, S. cerevisiae, YDR375C, residues 1-456 (coding region of the gene); N-terminal 6xHis-FLAG-3C tag; no cleavage with 3C protease is described for Bcs1; AAA ATPase that forms heptameric rings; also called yBcs1; bc1 synthesis 1) MSDKPIDIQYDKQATPNLSGVITPPTNETGNDSVREKLSKLVGDAMSNNPYFAAGGGLMILGTGLAVARSGIIKASRVLYRQMIVDLEIQSKDKSYAWFLTWMAKHPQRVSRHLSVRTNYIQHDNGSVSTKFSLVPGPGNHWIRYKGAFILIKRERSAKMIDIANGSPFETVTLTTLYRDKHLFDDILNEAKDIALKTTEGKTVIYTSFGPEWRKFGQPKAKRMLPSVILDSGIKEGILDDVYDFMKNGKWYSDRGIPYRRGYLLYGPPGSGKTSFIQALAGELDYNICILNLSENNLTDDRLNHLMNNMPERSILLLEDIDAAFNKRSQTGEQGFHSSVTFSGLLNALDGVTSSEETITFMTTNHPEKLDAAIMRPGRIDYKVFVGNATPYQVEKMFMKFYPGETDICKKFVNSVKELDITVSTAQLQGLFVMNKDAPHDALKMVSSLRNANHIF |  |  | 7
